The values that follow come from patent US5929074A, “Pyridazinone derivatives with pharmaceutical activity” (Nissan Chemical Industries, Ltd., priority 1993, dated 1999).

Like-named read-outs stand apart in the source and are kept apart here.

The subject of experiment [1] is guinea-pig trachea. Put plainly: Bronchodilating effect in vitro, Method 1-2: relaxation of guinea-pig trachea strips (no LTD4 contraction). It is filed as cell-based. The following applies: Cavia porcellus; Method 1-2; trachea conditioned with 1 μM isoproterenol, no LTD4; DMSO 0.2 v/v%; read-out: EC50 (concentration to achieve 50% relaxation relative to relaxation by 1 mM aminophylline). Here is the method:
(§1) A test sample drug was dissolved in 100% dimethylsulfoxide (DMSO, Wako Junyaku) and diluted for use. Leukotriene D4 (LTD4, Ultrafine) and isoproterenol (Isoproterenol, Sigma) were diluted with distilled water. Indomethacin (Indo, Sigma) was dissolved in 100% ethanol (EtOH, Komune Kagaku). Aminophylline (AP, Sigma), histamine dihydrochloride (His, Wako Junyaku) was dissolved in distilled water. The final concentrations of DMSO and EtOH in a bath were made not higher than 0.25% v/v and not higher than 0.1% v/v, respectively. Method 1:1:
(§2) A guinea-pig of 300-450 g was exsanguinated, and the trachea was taken out. After removing fat and connective tissues, it was cut and divided into 2 to 3 spiral strips, each having a width of about 2 mm and containing 4 smooth muscle tissues. Each specimen thus prepared was suspended in an organ bath of 8 ml containing a modified Tyrode solution aerated with 95% O2 +5% CO2 at 37° C., and a load of 1 g was applied thereto. The relaxation of the muscle was recorded by a pen recorder (Yokogawa Hokushin Electric, type 3066) by means of an isotonic transducer (Nihon Kohden, TD-112S).
The same measuring method as method 1-1 was employed. The specimen was allowed to stand for from 60 to 90 minutes and then relaxed by an addition of 1 μM of isopreterenol. The specimen was washed, and this operation was repeated at an interval of from 30 to 40 minutes until a constant relaxation reaction was reached. Then, a test sample drug was accumulately applied to relax the specimen. Finally, 1 mM of AP was added to achieve the maximum relaxation reaction. The result was expressed by relaxation percent relative to the relaxation by AP which was rated 100%, and a concentration to achieve 50% relaxation (EC50, μM) was obtained. The final concentration of DMSO in the bath was adjusted to be 0.2 v/v%. As a control drug, AP was used.

The test system of experiment [2] is guinea-pig trachea. Put plainly: Bronchodilating effect in vitro, Method 1-1: relaxation of LTD4-contracted guinea-pig trachea strips. The following applies: Method 1-1, LTD4 (30 nM) contracted trachea, indomethacin 5 μM, read-out: EC50 (concentration to achieve 50% relaxation relative to relaxation by 1 mM aminophylline). It is filed as cell-based. On the procedure:
as §1, §2
The composition of the modified Tyrode solution was as follows (mM):
The specimen was allowed to stand for 50-60 minutes, and was contracted with histamine dihydrochloride (100 μM). After the reaction became constant, it was washed and allowed to stand for 20-30 minutes. Indomethacin (5 μM) was added thereto, and after incubation for 30 minutes, the specimen was contracted by adding LTD4 (30 nM). After the reaction-became stable, a test sample drug was accumulatively administered. Finally, AP (1 mM) was added to achieve the maximum relaxation reaction. The result was expressed by relaxation percent relative to the relaxation by AP which was rated 100%, and a concentration to achieve 50% relaxation (EC50, μM) was measured. As a control drug, AP was used.

The test system of another experiment is platelet. Put plainly: Anti-platelet aggregation effect in rabbits (ADP-induced). Format: cell-based, rabbit. The conditions noted are these: rabbit PRP, ADP 5 to 10 μM, 37° C., read-out: IC50 (concentration at which aggregation of control sample was 50% inhibited). On the procedure:
Anti-platelet aggregation effect in rabbits
Blood was collected from the abdominal artery of Japanese white male rabbits (weight: 1.8 to 2.5 kg) into a syringe containing 1/10 volume 3.8% sodium citrate. The blood thus obtained was subjected to a centrifugation at 200×g for 7 minutes at room temperature to obtain platelet rich plasma (PRP). Furthermore, the residue was subjected to a centrifugation at 2000×g for 10 minutes to obtain platelet poor plasma (PPP). The measurement was effected by diluting PRP with PPP to 300,000/mm^3. PRP and PPP were placed in a cuvette, and the measurement range of transmittance was adjusted to 0% in the case of PRP and to 100% in the case of PPP. Thereafter, a test sample drug dissolved in 100% dimethylsulfoxide (DMSO) was added to PRP (the final concentration of DMSO: 0.25%). After incubation was effected at 37° C. at 900 rpm for 2 minutes, an aggregating agent was added to record an aggregation curve. The anti-platelet aggregation effect of the test sample drug was expressed by a concentration (IC50 : μM) at which the aggregation of control sample was 50% inhibited. The aggregating agent ADP was used at the minimum concentration (5 to 10 μM) which caused the maximum aggregation. The measurement of platelet aggregation was carried out by using NBS HEMA TRACER 601.

Experiment [3] deals with anaphylactic bronchoconstriction mediated by endogeneously liberated SRS-A. Put plainly: Effect on anaphylactic bronchoconstriction mediated by endogeneously liberated SRS-A in passively sensitized guinea-pig. It is filed as in vivo. The following applies: 30 mg/kg, orally 2 hours before EA challenge; for inhibition in vivo at 30 mg/kg: Cavia porcellus, po, 2 h, read-out: Inhibition of broncho-constriction. Here is the method:
Effect on anaphylactic bronchoconstriction mediated by endogeneously liberated SRS-A in passively sensitized guinea-pig
Male guinea-pigs (350-450 g) were passively sensitized with intravenous (i.v.) injection of 0.125 ml rabbit anti-EA (egg albumin) serum (Capple Laboratories) 1 to 2 days preceding the experiment. Antigen-induced anaphylactic bronchoconstrictions mediated by endogeneously liberated SRS-A were measured by modified method of Konzett and Rossler (Arch. Exp. Path. Pharmak., 195, 71, 1940). Sensitized quinea-pigs were anaesthetized with intraperitoneal injection of urethane (1.5 g/kg). The right jugular vein was cannulated for the administration of the all agents and trachea was cannulated to record total pulmonary resistance. Guinea-pigs were artificially ventilated by a small animal respirator (Shinano, Model SN-480-7) set at a stroke volume of 4.5 ml and a rate of 50 breaths per min. The change in pulmonary resistance was measured with a pressure transducer (Nihon Kohden, Model TP-602T) connected to a T-tube on the tracheal cannula. The percentage of the maximum bronchoconstriction obtained by clamping off the trachea. Following surgical preparation, the animals were pretreated with indomethacin (2 mg/kg, 10 min), pyrilamine (2 mg/kg, 6 min) and propranolol (0.1 mg/kg, 5 min) prior to the EA challenge (0.2 mg/kg). All test compounds were administered orally 2 hours before the EA challenge. Inhibition (%) of broncho-constriction was determined as follows: Inhibition (%)=(1.0-% maximum bronchoconstriction in test/% maximum bronchoconstriction in control)×100. The maximum bronchoconstriction was 62±6% (Mean±S.E.M; n=6) and the number of test animals was 5-6.

The mark [4] stands for this setting: Oryctolagus cuniculus, Platelet.

Regarding `Cn1c(=O)c2[nH]cnc2n(C)c1=O` [Aminophylline, reference compound], the EC50 in the experiment on guinea-pig trachea [1] amounted to 37 µM; with guinea-pig trachea [2] (Cavia porcellus), 178 µM.

Consider `COc1ccc(CNc2cn[nH]c(=O)c2Cl)cc1OCCN1CCN(Cc2ccccc2)CC1` [Compound 4], for which, in the experiment on platelet (setting [4]), the IC50 is 5.2 µM. Besides, in the experiment with guinea-pig trachea [2] (Cavia porcellus), the EC50 was 1.7 µM.

Turning to `COc1ccc(CNc2cn[nH]c(=O)c2Br)cc1OCCN1CCN(Cc2ccccc2)CC1` [Compound 5], the IC50 with platelet (setting [4]) was determined as 4.1 µM. In the experiment on guinea-pig trachea [2] (Cavia porcellus), the EC50 was determined as 0.42 µM.

As for `COc1ccc(CNc2cn[nH]c(=O)c2Br)cc1OCCN1CCN(Cc2ccccc2)CC1` [Compound 6], in the experiment on platelet, the IC50 was 3.9 µM.

Take `COc1ccc(CNc2cn[nH]c(=O)c2Br)cc1OCCN1CCN(Cc2ccc(F)cc2)CC1` [Compound 13]: the IC50 with platelet (setting [4]) stood at 2.9 µM. The EC50 in the experiment on guinea-pig trachea [2] (Cavia porcellus) was determined as 0.45 µM.

As to `COc1ccc(CNc2cn[nH]c(=O)c2Br)cc1OCCN1CCN(Cc2ccc(F)cc2)CC1` [Compound 14], the IC50 in the experiment on platelet amounted to 3.5 µM.

For `COc1ccc(CNc2cn[nH]c(=O)c2Cl)cc1OCCN1CCN(Cc2ccc(F)cc2)CC1` [Compound 15], in the experiment with platelet (setting [4]), the IC50 came out at 4.5 µM. The EC50 in the experiment with guinea-pig trachea [2] (Cavia porcellus) came to 0.48 µM.

On to `COc1ccc(CNc2cn[nH]c(=O)c2Cl)cc1OCCN1CCN(Cc2ccc(F)cc2)CC1` [Compound 16], for which the EC50 in the experiment on guinea-pig trachea [1] is 0.34 µM. Moreover, the IC50 with platelet stood at 5.2 µM.

Consider `CCn1ncc(NCc2ccc(OC)c(OCCCN3CCN(Cc4ccc(F)cc4)CC3)c2)c(Cl)c1=O` [Compound 27], for which the EC50 in the experiment on guinea-pig trachea [2] (Cavia porcellus) worked out at 4 µM.

`COc1ccc(CNc2cn[nH]c(=O)c2Cl)cc1OCC(=O)NCc1cccnc1` [Compound 31]: the EC50 in the experiment on guinea-pig trachea [2] (Cavia porcellus) came to 6.9 µM.

For the molecule `COc1ccc(CNc2cn[nH]c(=O)c2Br)cc1OCC(=O)N1CCN(Cc2cccnc2)CC1` [Compound 34], the EC50 with guinea-pig trachea [2] (Cavia porcellus) was 3.8 µM.

In the case of `COc1ccc(CNc2cn[nH]c(=O)c2Cl)cc1OCC(=O)N1CCN(Cc2cccnc2)CC1` [Compound 35], in the experiment on guinea-pig trachea [2] (Cavia porcellus), the EC50 came out at 6.6 µM.

As to `COc1ccc(CNc2cn[nH]c(=O)c2Cl)cc1OCC(=O)N1CCN(Cc2ccccc2)CC1` [Compound 37], the Inhibition of broncho-constriction in experiment [3] was 54%.

`COc1ccc(CNc2cn[nH]c(=O)c2Br)cc1OCC(=O)N1CCN(Cc2ccccc2)CC1` [Compound 38]: in the experiment on platelet (setting [4]), the IC50 was found to be 1.2 µM.

Turning to `COc1ccc(CNc2cn[nH]c(=O)c2Br)cc1OCCCC(=O)N1CCN(Cc2ccccc2)CC1` [Compound 48], the EC50 in the experiment with guinea-pig trachea [1] turned out to be 0.21 µM; with guinea-pig trachea [2] (Cavia porcellus), 0.95 µM. Also, the IC50 in the experiment with platelet (setting [4]) was 4 µM.

Turning to `COc1ccc(CNc2cn[nH]c(=O)c2Cl)cc1OCCCCCC(=O)N1CCN(Cc2ccccc2)CC1` [Compound 49], in the experiment with guinea-pig trachea [2] (Cavia porcellus), the EC50 stood at 1.1 µM.

Regarding `COc1ccc(CNc2cn[nH]c(=O)c2Cl)cc1OCC(=O)N1CCN(Cc2ccc(Cl)cc2)CC1` [Compound 51], the EC50 is 0.097 µM in the experiment on guinea-pig trachea [1] and 6.1 µM in the experiment on guinea-pig trachea [2] (Cavia porcellus). The IC50 in the experiment with platelet (setting [4]) was determined as 1.1 µM.

Regarding `COc1ccc(CNc2cn[nH]c(=O)c2Cl)cc1OCC(O)CN1CCN(Cc2ccc(F)cc2)CC1` (centres unmarked) [Compound 53], the EC50 in the experiment on guinea-pig trachea [2] (Cavia porcellus) came to 3.1 µM.

On to `COc1ccc(CNc2cn[nH]c(=O)c2Cl)cc1OCCCN1CCN(Cc2ccccc2)CC1` [Compound 54], for which the EC50 was found to be 0.3 µM in the experiment with guinea-pig trachea [1] and 2.4 µM in the experiment on guinea-pig trachea [2].

With `COc1ccc(CNc2cn[nH]c(=O)c2Cl)cc1OC(C)CN1CCN(Cc2ccc(F)cc2)CC1` (centres unmarked) [Compound 55], the EC50 in the experiment on guinea-pig trachea [2] (Cavia porcellus) came out at 7.3 µM.

For the molecule `COc1ccc(CNc2cn[nH]c(=O)c2Cl)cc1OCC(=O)N1CCN(Cc2ccc3ccccc3n2)CC1` [Compound 61], the EC50 in the experiment with guinea-pig trachea [1] was 0.31 µM.

Take `COc1ccc(CNc2cn[nH]c(=O)c2Cl)cc1OCC(=O)N1CCC(Cc2ccccc2)CC1` [Compound 62]: the EC50 with guinea-pig trachea [1] worked out at 0.05 µM.

On to `CCOc1n[nH]c(=O)c(Cl)c1NCc1ccc(OC)c(OCCN2CCN(Cc3ccc(F)cc3)CC2)c1` [Compound 65], for which, in the experiment on guinea-pig trachea [1], the EC50 came to 0.36 µM.

With `CCOc1n[nH]c(=O)c(Cl)c1NCc1ccc(OC)c(OCC(=O)N2CCN(Cc3ccccc3)CC2)c1` [Compound 66], the EC50 with guinea-pig trachea [1] stood at 0.067 µM; in the experiment on guinea-pig trachea [2] (Cavia porcellus), 0.18 µM.

As to `CCOc1n[nH]c(=O)c(Cl)c1NCc1ccc(OC)c(OCC(C)(C)C(=O)N2CCN(Cc3ccc(F)cc3)CC2)c1` [Compound 69], in the experiment on guinea-pig trachea [1], the EC50 was determined as 0.43 µM.

As to `CCOc1n[nH]c(=O)c(Cl)c1NCc1ccc(OC)c(OCCCN2CCN(Cc3ccc4ccccc4n3)CC2)c1` [Compound 71], in the experiment with guinea-pig trachea [1], the EC50 stood at 0.25 µM.

On to `CCOc1n[nH]c(=O)c(Cl)c1NCc1ccc(OC)c(OCC(=O)N2CCN(Cc3nc4ccccc4n3Cc3ccc(F)cc3)CC2)c1` [Compound 73], for which, in the experiment with guinea-pig trachea [1], the EC50 is 0.49 µM.

`CCOc1n[nH]c(=O)c(Cl)c1NCc1ccc(OC)c(OCC(=O)N2CCC(Cc3ccccc3)CC2)c1` [Compound 74]: in experiment [3], the inhibition in vivo at 30 mg/kg amounted to 30%. The EC50 in the experiment on guinea-pig trachea [1] amounted to 0.046 µM.

For `CCOc1n[nH]c(=O)c(Cl)c1NCc1ccc(OC)c(OCCN2CCC(Cc3ccccc3)CC2)c1` [Compound 75], in the experiment with guinea-pig trachea [1], the EC50 was determined as 0.4 µM.

In the case of `COc1ccc(CNc2c(OC(C)C)n[nH]c(=O)c2Cl)cc1OCC(=O)N1CCN(Cc2ccc(F)cc2)CC1` [Compound 76], the EC50 with guinea-pig trachea [1] stood at 0.048 µM; in the experiment with guinea-pig trachea [2] (Cavia porcellus) it was 0.69 µM.

Take `COc1ccc(CNc2c(OC(C)C)n[nH]c(=O)c2Cl)cc1OCC(O)CN1CCN(Cc2ccc(NC=O)cc2)CC1` (centres unmarked) [Compound 77]: the inhibition in vivo at 30 mg/kg in experiment [3] worked out at 65%. Further, in the experiment with guinea-pig trachea [1], the EC50 is 0.057 µM.

As to `COc1ccc(CNc2c(OC(C)C)n[nH]c(=O)c2Cl)cc1OCC(=O)N1CCN(Cc2ccc(NC=O)cc2)CC1` [Compound 79], the EC50 in the experiment on guinea-pig trachea [1] was found to be 0.041 µM.
